Measured values as given in ChEMBL document CHEMBL1152345, “Clavatadines C-E, guanidine alkaloids from the Australian sponge Suberea clavata” (J Nat Prod, 2009).

How the values were obtained:
[1] = molecular target: Coagulation factor IX (Homo sapiens) (UniProt P00740); assay: Inhibition of factor 9a at 222 uM after 10 min
[2] = molecular target: Coagulation factor XI (Homo sapiens) (UniProt P03951); assay: Inhibition of factor 11a at 222 uM after 10 min
Chain of Coagulation factor XI (Homo sapiens) (P03951 19-387 limits assumed): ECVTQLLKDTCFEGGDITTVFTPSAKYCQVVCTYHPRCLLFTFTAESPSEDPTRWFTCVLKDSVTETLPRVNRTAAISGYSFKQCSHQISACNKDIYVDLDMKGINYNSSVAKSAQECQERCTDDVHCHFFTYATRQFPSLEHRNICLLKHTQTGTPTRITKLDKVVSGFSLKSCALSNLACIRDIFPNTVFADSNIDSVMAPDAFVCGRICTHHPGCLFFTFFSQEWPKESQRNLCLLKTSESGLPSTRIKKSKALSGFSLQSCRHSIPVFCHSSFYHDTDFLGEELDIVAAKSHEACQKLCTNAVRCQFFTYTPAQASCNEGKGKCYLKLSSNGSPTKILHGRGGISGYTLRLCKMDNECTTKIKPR
Chain of Coagulation factor XI (Homo sapiens) (P03951 388-625 limits assumed): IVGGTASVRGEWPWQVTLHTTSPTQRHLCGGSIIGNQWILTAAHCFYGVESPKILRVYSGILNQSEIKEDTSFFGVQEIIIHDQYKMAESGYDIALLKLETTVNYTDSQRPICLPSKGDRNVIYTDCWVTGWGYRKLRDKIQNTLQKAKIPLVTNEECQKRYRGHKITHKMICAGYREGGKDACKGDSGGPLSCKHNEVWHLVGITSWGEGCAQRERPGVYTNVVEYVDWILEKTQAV

Chain of Coagulation factor IX (Homo sapiens) (P00740 47-191 limits assumed): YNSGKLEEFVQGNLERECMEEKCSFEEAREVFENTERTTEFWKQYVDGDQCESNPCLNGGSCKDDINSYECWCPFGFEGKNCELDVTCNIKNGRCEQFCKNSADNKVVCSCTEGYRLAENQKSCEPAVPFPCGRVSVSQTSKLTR
Chain of Coagulation factor IX (Homo sapiens) (P00740 227-461 limits assumed): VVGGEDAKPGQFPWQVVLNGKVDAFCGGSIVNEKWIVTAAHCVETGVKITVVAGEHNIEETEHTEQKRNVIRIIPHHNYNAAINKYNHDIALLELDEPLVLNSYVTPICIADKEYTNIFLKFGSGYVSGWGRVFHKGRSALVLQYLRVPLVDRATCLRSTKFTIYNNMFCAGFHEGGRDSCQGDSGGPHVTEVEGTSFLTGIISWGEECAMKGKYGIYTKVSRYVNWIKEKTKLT

inhibition [1] | inhibition [2] | Structure (SMILES)
< 5% | 17% | N=C(N)NCCCCNC(=O)C1=NOC2(C=C(Br)C(=O)C(Br)=C2)C1
< 5% | 30% | N=C(N)NCCCCCNC(=O)C1=NOC2(C=C(Br)C(=O)C(Br)=C2)C1
< 5% | 30% | COC1=C(Br)[C@H](O)[C@@]2(C=C1Br)CC(C(=O)NCCCCCNC(=N)N)=NO2
< 5% | 37% | N=C(N)NCCCCNC(=O)/C(Cc1ccc(O)c(Br)c1)=N/O
< 5% | 12% | COC1=C(Br)[C@H](O)[C@@]2(C=C1Br)CC(C(=O)NCCCCNC(=N)N)=NO2
< 5% | 59% | COC1=C(Br)[C@@H](O)[C@]2(C=C1Br)CC(C(=O)NCCc1cnc[nH]1)=NO2
